Assay results from ChEMBL document CHEMBL4813981, “Synthesis and in vitro antibacterial activity of new aminothiazole-oximepiperidone cephalosporins” (2021).
Values after ≈ are worked out from the molar mass of the structure shown.

Assays:
Type in all cases: functional
Klebsiella aerogenes [1] = assay: Antibacterial activity against Enterobacter aerogenes 17-3 assessed as reduction in bacterial growth
Escherichia coli [2] = assay: Antibacterial activity against ESBLs positive Carbapenem-sensitive Escherichia coli 17-2 assessed as reduction in bacterial growth
Klebsiella aerogenes [3] = assay: Antibacterial activity against Enterobacter aerogenes 17-4 assessed as reduction in bacterial growth
Klebsiella pneumoniae [4] = assay: Antibacterial activity against Carbapenem- resistant Klebsiella pneumoniae KR 15-11 assessed as reduction in bacterial growth
Pseudomonas aeruginosa [5] = assay: Antibacterial activity against Carbapenem- resistant Pseudomonas aeruginosa 17-8 assessed as reduction in bacterial growth
Acinetobacter baumannii [6] = assay: Antibacterial activity against Carbapenem- resistant Acinetobacter baumannii 17-12 assessed as reduction in bacterial growth
Pseudomonas aeruginosa [7] = assay: Antibacterial activity against Pseudomonas aeruginosa ATCC 27853 assessed as reduction in bacterial growth
Klebsiella pneumoniae [8] = assay: Antibacterial activity against Carbapenem- resistant Klebsiella pneumoniae KR 15-10 assessed as reduction in bacterial growth
Klebsiella aerogenes [9] = assay: Antibacterial activity against Enterobacter aerogenes 17-1 assessed as reduction in bacterial growth
Klebsiella pneumoniae [10] = assay: Antibacterial activity against Klebsiella pneumoniae ATCC BAA-1705 assessed as reduction in bacterial growth
Pseudomonas aeruginosa [11] = assay: Antibacterial activity against Carbapenem- sensitive Pseudomonas aeruginosa 17-10 assessed as reduction in bacterial growth
Klebsiella pneumoniae [12] = assay: Antibacterial activity against Carbapenem- sensitive Klebsiella pneumoniae 17-5 overexpressing extended spectrum beta-lactamases assessed as reduction in bacterial growth
Enterobacter cloacae [13] = assay: Antibacterial activity against Enterobacter cloacae 17-7 assessed as reduction in bacterial growth
Klebsiella pneumoniae [14] = assay: Antibacterial activity against Carbapenem- sensitive Klebsiella pneumoniae 17-8 overexpressing extended spectrum beta-lactamases assessed as reduction in bacterial growth
Acinetobacter baumannii [15] = assay: Antibacterial activity against Carbapenem- resistant Acinetobacter baumannii 17-5 assessed as reduction in bacterial growth
Klebsiella pneumoniae [16] = assay: Antibacterial activity against Carbapenem- resistant Klebsiella pneumoniae KR 15-9 assessed as reduction in bacterial growth
Pseudomonas aeruginosa [17] = assay: Antibacterial activity against Carbapenem- resistant Pseudomonas aeruginosa 17-5 assessed as reduction in bacterial growth
Klebsiella pneumoniae [18] = assay: Antibacterial activity against Carbapenem- resistant Klebsiella pneumoniae KR 15-5 assessed as reduction in bacterial growth
Escherichia coli [19] = assay: Antibacterial activity against ESBLs positive Carbapenem-sensitive Escherichia coli 17-22 assessed as reduction in bacterial growth
Klebsiella pneumoniae [20] = assay: Antibacterial activity against ESBLs negative Carbapenem-sensitive Klebsiella pneumonia 15-2 assessed as reduction in bacterial growth
Pseudomonas aeruginosa [21] = assay: Antibacterial activity against Carbapenem- sensitive Pseudomonas aeruginosa 17-21 assessed as reduction in bacterial growth
Klebsiella pneumoniae [22] = assay: Antibacterial activity against Carbapenem- sensitive Klebsiella pneumoniae 17-11 overexpressing extended spectrum beta-lactamases assessed as reduction in bacterial growth
Acinetobacter baumannii [23] = assay: Antibacterial activity against Carbapenem- resistant Acinetobacter baumannii 17-8 assessed as reduction in bacterial growth
Escherichia coli [24] = assay: Antibacterial activity against Escherichia coli ATCC 25922 assessed as reduction in bacterial growth
Klebsiella pneumoniae [25] = assay: Antibacterial activity against ESBLs negative Carbapenem-sensitive Klebsiella pneumoniae 17-18 assessed as reduction in bacterial growth
Enterobacter cloacae [26] = assay: Antibacterial activity against Enterobacter cloacae 17-9 assessed as reduction in bacterial growth
Klebsiella pneumoniae [27] = assay: Antibacterial activity against Carbapenem- sensitive Klebsiella pneumoniae 17-7 overexpressing extended spectrum beta-lactamases assessed as reduction in bacterial growth
Escherichia coli [28] = assay: Antibacterial activity against ESBLs positive Carbapenem-sensitive Escherichia coli 17-8 assessed as reduction in bacterial growth
Escherichia coli [29] = assay: Antibacterial activity against ESBLs positive Carbapenem-sensitive Escherichia coli 17-14 assessed as reduction in bacterial growth
Escherichia coli [30] = assay: Antibacterial activity against ESBLs positive Carbapenem-sensitive Escherichia coli 17-3 assessed as reduction in bacterial growth
Enterobacter cloacae [31] = assay: Antibacterial activity against Enterobacter cloacae 17-8 assessed as reduction in bacterial growth
Escherichia coli [32] = assay: Antibacterial activity against ESBLs negative Carbapenem-sensitive Escherichia coli 17-1 assessed as reduction in bacterial growth
Pseudomonas aeruginosa [33] = assay: Antibacterial activity against Carbapenem- sensitive Pseudomonas aeruginosa 17-29 assessed as reduction in bacterial growth
Acinetobacter baumannii [34] = assay: Antibacterial activity against Carbapenem- resistant Acinetobacter baumannii 17-2 assessed as reduction in bacterial growth
Enterobacter cloacae [35] = assay: Antibacterial activity against Enterobacter cloacae 17-10 assessed as reduction in bacterial growth
Klebsiella pneumoniae [36] = assay: Antibacterial activity against Carbapenem- sensitive Klebsiella pneumoniae 17-10 overexpressing extended spectrum beta-lactamases assessed as reduction in bacterial growth
Klebsiella pneumoniae [37] = assay: Antibacterial activity against Carbapenem- sensitive Klebsiella pneumoniae 17-3 overexpressing extended spectrum beta-lactamases assessed as reduction in bacterial growth
Klebsiella pneumoniae [38] = assay: Antibacterial activity against Carbapenem- sensitive Klebsiella pneumoniae 17-4 overexpressing extended spectrum beta-lactamases assessed as reduction in bacterial growth
Klebsiella aerogenes [39] = assay: Antibacterial activity against Enterobacter aerogenes 15-5 assessed as reduction in bacterial growth
Enterobacter cloacae [40] = assay: Antibacterial activity against Enterobacter cloacae 17-2 assessed as reduction in bacterial growth
Escherichia coli [41] = assay: Antibacterial activity against ESBLs positive Carbapenem-sensitive Escherichia coli 17-21 assessed as reduction in bacterial growth
Klebsiella pneumoniae [42] = assay: Antibacterial activity against Carbapenem- resistant Klebsiella pneumoniae KR 15-6 assessed as reduction in bacterial growth
Klebsiella pneumoniae [43] = assay: Antibacterial activity against ESBLs negative Carbapenem-sensitive Klebsiella pneumoniae 17-16 assessed as reduction in bacterial growth
Escherichia coli [44] = assay: Antibacterial activity against ESBLs positive Carbapenem-sensitive Escherichia coli 17-11 assessed as reduction in bacterial growth
Pseudomonas aeruginosa [45] = assay: Antibacterial activity against Carbapenem- sensitive Pseudomonas aeruginosa 17-26 assessed as reduction in bacterial growth
Acinetobacter baumannii [46] = assay: Antibacterial activity against Acinetobacter baumannii NCTC 13304 assessed as reduction in bacterial growth
Enterobacter cloacae [47] = assay: Antibacterial activity against Enterobacter cloacae 17-5 assessed as reduction in bacterial growth
Klebsiella pneumoniae [48] = assay: Antibacterial activity against Carbapenem- sensitive Klebsiella pneumoniae 17-14 overexpressing extended spectrum beta-lactamases assessed as reduction in bacterial growth
Escherichia coli [49] = assay: Antibacterial activity against ESBLs positive Carbapenem-sensitive Escherichia coli 17-18 assessed as reduction in bacterial growth
Escherichia coli [50] = assay: Antibacterial activity against ESBLs negative Carbapenem-sensitive Escherichia coli 17-16 assessed as reduction in bacterial growth
Klebsiella pneumoniae [51] = assay: Antibacterial activity against Carbapenem- sensitive Klebsiella pneumoniae 17-12 overexpressing extended spectrum beta-lactamases assessed as reduction in bacterial growth
Escherichia coli [52] = assay: Antibacterial activity against ESBLs negative Carbapenem-sensitive Escherichia coli 17-9 assessed as reduction in bacterial growth
Klebsiella aerogenes [53] = assay: Antibacterial activity against Enterobacter aerogenes 15-7 assessed as reduction in bacterial growth
Pseudomonas aeruginosa [54] = assay: Antibacterial activity against Carbapenem- sensitive Pseudomonas aeruginosa 17-24 assessed as reduction in bacterial growth

SMILES: Nc1nc(/C(=N/OCc2cc(=O)c(O)cn2O)C(=O)N[C@@H]2C(=O)N3C(C(=O)O)=CCS[C@H]23)cs1
- MIC (Klebsiella aerogenes [1]): 2 mg/L (≈ 3.93 µM)
- MIC (Escherichia coli [2]): 2 mg/L (≈ 3.93 µM)
- MIC (Klebsiella aerogenes [3]): 8 mg/L (≈ 15.7 µM)
- MIC (Klebsiella pneumoniae [4]): > 64 mg/L
- MIC (Pseudomonas aeruginosa [5]): 32 mg/L (≈ 62.9 µM)
- MIC (Acinetobacter baumannii [6]): > 64 mg/L
- MIC (Pseudomonas aeruginosa [7]): 1 mg/L (≈ 1.97 µM)
- MIC (Klebsiella pneumoniae [8]): > 64 mg/L
- MIC (Klebsiella aerogenes [9]): 32 mg/L (≈ 62.9 µM)
- MIC (Klebsiella pneumoniae [10]): 64 mg/L (≈ 126 µM)
- MIC (Pseudomonas aeruginosa [11]): 2 mg/L (≈ 3.93 µM)
- MIC (Klebsiella pneumoniae [12]): 8 mg/L (≈ 15.7 µM)
- MIC (Enterobacter cloacae [13]): > 64 mg/L
- MIC (Klebsiella pneumoniae [14]): > 64 mg/L
- MIC (Acinetobacter baumannii [15]): > 64 mg/L
- MIC (Klebsiella pneumoniae [16]): > 64 mg/L
- MIC (Pseudomonas aeruginosa [17]): 64 mg/L (≈ 126 µM)
- MIC (Klebsiella pneumoniae [18]): > 64 mg/L
- MIC (Escherichia coli [19]): > 64 mg/L
- MIC (Klebsiella pneumoniae [20]): 0.06 mg/L (≈ 0.118 µM)
- MIC (Pseudomonas aeruginosa [21]): 4 mg/L (≈ 7.87 µM)
- MIC (Klebsiella pneumoniae [22]): > 64 mg/L
- MIC (Acinetobacter baumannii [23]): > 64 mg/L
- MIC (Escherichia coli [24]): 0.5 mg/L (≈ 0.983 µM)
- MIC (Klebsiella pneumoniae [25]): ≤ 0.03 mg/L
- MIC (Enterobacter cloacae [26]): 8 mg/L (≈ 15.7 µM)
- MIC (Klebsiella pneumoniae [27]): > 64 mg/L
- MIC (Escherichia coli [28]): 16 mg/L (≈ 31.5 µM)
- MIC (Escherichia coli [29]): 64 mg/L (≈ 126 µM)
- MIC (Escherichia coli [30]): 2 mg/L (≈ 3.93 µM)
- MIC (Enterobacter cloacae [31]): 16 mg/L (≈ 31.5 µM)
- MIC (Escherichia coli [32]): 32 mg/L (≈ 62.9 µM)
- MIC (Pseudomonas aeruginosa [33]): 2 mg/L (≈ 3.93 µM)
- MIC (Acinetobacter baumannii [34]): > 64 mg/L
- MIC (Enterobacter cloacae [35]): 1 mg/L (≈ 1.97 µM)
- MIC (Klebsiella pneumoniae [36]): > 64 mg/L
- MIC (Klebsiella pneumoniae [37]): > 64 mg/L
- MIC (Klebsiella pneumoniae [38]): > 64 mg/L
- MIC (Klebsiella aerogenes [39]): 8 mg/L (≈ 15.7 µM)
- MIC (Enterobacter cloacae [40]): > 64 mg/L
- MIC (Escherichia coli [41]): 64 mg/L (≈ 126 µM)
- MIC (Klebsiella pneumoniae [42]): 16 mg/L (≈ 31.5 µM)
- MIC (Klebsiella pneumoniae [43]): 0.5 mg/L (≈ 0.983 µM)
- MIC (Escherichia coli [44]): > 64 mg/L
- MIC (Pseudomonas aeruginosa [45]): 2 mg/L (≈ 3.93 µM)
- MIC (Acinetobacter baumannii [46]): > 64 mg/L
- MIC (Enterobacter cloacae [47]): 32 mg/L (≈ 62.9 µM)
- MIC (Klebsiella pneumoniae [48]): 4 mg/L (≈ 7.87 µM)
- MIC (Escherichia coli [49]): 8 mg/L (≈ 15.7 µM)
- MIC (Escherichia coli [50]): 2 mg/L (≈ 3.93 µM)
- MIC (Klebsiella pneumoniae [51]): 1 mg/L (≈ 1.97 µM)
- MIC (Escherichia coli [52]): 0.5 mg/L (≈ 0.983 µM)
- MIC (Klebsiella aerogenes [53]): 4 mg/L (≈ 7.87 µM)
- MIC (Pseudomonas aeruginosa [54]): 4 mg/L (≈ 7.87 µM)
